Patent publication US7208266B2, “Endogenous coagulation activator compounds —use in exploring endogenous coagulation” (Societe Diagnostica-Stago, priority 2001, dated 2007)

Legend:
Type in all cases: biochemical
endogenous coagulation [1] = assay: APTT coagulation time, reagents from amides or esters of gallic acid (Example 2); settings: gallic acid derivative 100 μM
endogenous coagulation [2] = assay: as above; settings: for Coagulation time, CCN / Coagulation time, CCP / Coagulation time, Heparins Batch 0811 / Coagulation time, Lupus Batch 021 / Coagulation time, Pool N LIK 800 / Coagulation time, Heparins Batch 1706: gallic acid derivative 100 μM
Text: Thus, the invention also concerns a method for measuring the activated partial thromoboplastin time (APTT) comprising the steps of: • bringing a platelet-depleted plasma sample into contact with compounds or compositions in accordance with the invention, in the presence of substitutes for the phospholipids of the platelet membrane, under conditions that allow activation of the endogenous coagulation pathway; • adding Ca^2+ ions in a quantity equivalent to the quantity of these ions that have been complexed in the plasma sample; • measuring the time required to transform fibrinogen into fibrin.
In particular, within the context of carrying out the above method, the plasma sample is constituted by a platelet-depleted plasma and a coagulation activator is incubated with the plasma for a period of about 2 to 5 minutes, at 37° C. The phospholipid membrane substitutes are either added from the start of the reaction, or mixed with the activator, or added individually during the reaction.
Then the calcium ions are added, for example in the form of calcium chloride in a concentration in the range 20 mM to 25 mM. The time required for fibrin formation is then measured.
In the next example, the coagulation times for different plasmas were determined from APTT reagents obtained from amides or esters of gallic acid. • normal plasmas=pool of equivalent quantities of plasmas from normal subjects; • CCN=coag. control normal: control plasma, normal level; • CCP=coag. control patho: control plasma, disease level; • heparins=plasmas from patient receiving an anticoagulating treatment based on non-fractionated heparin in the form of sodium or calcium salts; • lupus=plasma from a patient presenting with Lupus anticoagulant Syndrome; • def.f VIIIc=plasma from a patient presenting with a f VIIIc deficit (haemophilia A).

endogenous coagulation [3] = assay: APTT coagulation time versus ethylene glycol gallate concentration (Example 6)
Experimental: The coagulating activity of an APTT reagent requires the joint action of two active principles: • a molecule activating the contact phase of the endogenous pathway. In fact, this was ethylene glycol gallate activated by heating to 80° C.; • a substitute for the phospholipids of the platelet membrane, cephaline, obtained by extracting rabbit brains with chloroform;
Optimum activity of the APTT reagent thus constituted depends on the concentrations of ethylene glycol gallate and cephaline.
The following tables show the results obtained for representative plasmas for different disorders and for some controls.

endogenous coagulation [4] = assay: APTT coagulation time, activation kinetics of ethylene glycol gallate heated at 80° C. (Example 3); settings: 500 μM in solution buffered to pH 7.00, after heating for 24 hours at 80° C.
Experimental: After heating for 24 hours at 80° C., 500 μM of ethylene glycol gallate in solution buffered to a pH of 7.00 became active in an APTT coagulation test.
The procoagulating activity of the ethylene glycol gallate solution was compared with that of a reference reagent: CK-PREST, an APTT reagent in which the activator is kaolin. The instrument used to measure the coagulation time was an automated STA Diagnostica Stago haemostasis instrument (series n° 307).
The test plasmas were quality control plasmas:
CCN=coag control normal; CCP=coag control patho, batch n° 980901.
APTT reagent produced=ethylene glycol gallate, 500 μM, oxidised at 80° C.+Tricine, […], pH 7.00+cephaline (substitute for platelet phospholipids).

[5] = Ethylene Glycol gallate 1000 μM

N[C@@H](CO)C(=O)O [H2N—CH—(CH2OH)—COOH]
Coagulation time, f VII def 25% (endogenous coagulation [1]): 153.0 s
Coagulation time, CCN (endogenous coagulation [2]): 210.9 s
Coagulation time, CCP (endogenous coagulation [2]): 189.3 s
Coagulation time, Heparins Batch 0811 (endogenous coagulation [2]): >300.0 s
Coagulation time, Lupus Batch 021 (endogenous coagulation [2]): 232.6 s
Coagulation time, Pool N LIK 800 (endogenous coagulation [2]): 245.0 s

O=C(OCCO)c1cc(O)c(O)c(O)c1 [ethylene glycol gallate]
Coagulation time, f VII def 25% (endogenous coagulation [1]): 35.6 s
Coagulation times compared with the reference reagent, CK-Prest (endogenous coagulation [2]; all plasmas of the table, derivative 100 μM): nearest results to those obtained with the reference reagent
Coagulation time, CCN (endogenous coagulation [2]): 32.7 s
Coagulation time, CCP (endogenous coagulation [2]): 50.5 s
Coagulation time, Heparins Batch 0811 (endogenous coagulation [2]): 112.5 s
Coagulation time, Heparins Batch 1706 (endogenous coagulation [2]): 65.7 s
Coagulation time, Lupus Batch 021 (endogenous coagulation [2]): 45.7 s
Coagulation time, Pool N LIK 800 (endogenous coagulation [2]): 37.4 s
Coagulation time Control batch n° 80901 Normal (endogenous coagulation [3]; Ethylene Glycol gallate 10 μM): 130.6 s
Coagulation time Control batch n° 80901 Path (endogenous coagulation [3]; Ethylene Glycol gallate 10 μM): >140.0 s
Coagulation time Plasma (LA) MA 030 (endogenous coagulation [3]; Ethylene Glycol gallate 10 μM): >140.0 s
Coagulation time Plasma def f VIIIc (endogenous coagulation [3]; Ethylene Glycol gallate 10 μM): 121.9 s
Coagulation time Plasmas Heparins Batch 1635 (endogenous coagulation [3]; Ethylene Glycol gallate 10 μM): >140.0 s
Coagulation time Plasmas Heparins Batch 1726 (endogenous coagulation [3]; Ethylene Glycol gallate 10 μM): >140.0 s
Coagulation time Control batch n° 80901 Normal (endogenous coagulation [3]; Ethylene Glycol gallate 25 μM): 124.5 s
Coagulation time Control batch n° 80901 Path (endogenous coagulation [3]; Ethylene Glycol gallate 25 μM): 103.3 s
Coagulation time Plasma (LA) MA 030 (endogenous coagulation [3]; Ethylene Glycol gallate 25 μM): 103.3 s
Coagulation time Plasma def f VIIIc (endogenous coagulation [3]; Ethylene Glycol gallate 25 μM): 73.1 s
Coagulation time Plasmas Heparins Batch 1635 (endogenous coagulation [3]; Ethylene Glycol gallate 25 μM): >140.0 s
Coagulation time Plasmas Heparins Batch 1726 (endogenous coagulation [3]; Ethylene Glycol gallate 25 μM): >140.0 s
Coagulation time Control batch n° 80901 Normal (endogenous coagulation [3]; Ethylene Glycol gallate 50 μM): 88.6 s
Coagulation time Control batch n° 80901 Path (endogenous coagulation [3]; Ethylene Glycol gallate 50 μM): 99.6 s
Coagulation time Plasma (LA) MA 030 (endogenous coagulation [3]; Ethylene Glycol gallate 50 μM): 66.6 s
Coagulation time Plasma def f VIIIc (endogenous coagulation [3]; Ethylene Glycol gallate 50 μM): 44.8 s
Coagulation time Plasmas Heparins Batch 1635 (endogenous coagulation [3]; Ethylene Glycol gallate 50 μM): 73.1 s
Coagulation time Plasmas Heparins Batch 1726 (endogenous coagulation [3]; Ethylene Glycol gallate 50 μM): >140.0 s
Coagulation time Control batch n° 80901 Normal (endogenous coagulation [3]; Ethylene Glycol gallate 75 μM): 46.5 s
Coagulation time Control batch n° 80901 Path (endogenous coagulation [3]; Ethylene Glycol gallate 75 μM): 67.4 s
Coagulation time Plasma (LA) MA 030 (endogenous coagulation [3]; Ethylene Glycol gallate 75 μM): 50.4 s
Coagulation time Plasma def f VIIIc (endogenous coagulation [3]; Ethylene Glycol gallate 75 μM): 38.6 s
Coagulation time Plasmas Heparins Batch 1635 (endogenous coagulation [3]; Ethylene Glycol gallate 75 μM): 48.3 s
Coagulation time Plasmas Heparins Batch 1726 (endogenous coagulation [3]; Ethylene Glycol gallate 75 μM): 86.6 s
Coagulation time Control batch n° 80901 Normal (endogenous coagulation [3]; Ethylene Glycol gallate 100 μM): 38.4 s
Coagulation time Control batch n° 80901 Path (endogenous coagulation [3]; Ethylene Glycol gallate 100 μM): 46.2 s
Coagulation time Plasma (LA) MA 030 (endogenous coagulation [3]; Ethylene Glycol gallate 100 μM): 47.5 s
Coagulation time Plasma def f VIIIc (endogenous coagulation [3]; Ethylene Glycol gallate 100 μM): 38.2 s
Coagulation time Plasmas Heparins Batch 1635 (endogenous coagulation [3]; Ethylene Glycol gallate 100 μM): 48.0 s
Coagulation time Plasmas Heparins Batch 1726 (endogenous coagulation [3]; Ethylene Glycol gallate 100 μM): 80.0 s
Coagulation time Control batch n° 80901 Normal (endogenous coagulation [3]; Ethylene Glycol gallate 200 μM): 35.2 s
Coagulation time Control batch n° 80901 Path (endogenous coagulation [3]; Ethylene Glycol gallate 200 μM): 42.5 s
Coagulation time Plasma (LA) MA 030 (endogenous coagulation [3]; Ethylene Glycol gallate 200 μM): 46.7 s
Coagulation time Plasma def f VIIIc (endogenous coagulation [3]; Ethylene Glycol gallate 200 μM): 37.7 s
Coagulation time Plasmas Heparins Batch 1635 (endogenous coagulation [3]; Ethylene Glycol gallate 200 μM): 48.5 s
Coagulation time Plasmas Heparins Batch 1726 (endogenous coagulation [3]; Ethylene Glycol gallate 200 μM): 75.4 s
Coagulation time Control batch n° 80901 Normal (endogenous coagulation [3]; Ethylene Glycol gallate 300 μM): 34.3 s
Coagulation time Control batch n° 80901 Path (endogenous coagulation [3]; Ethylene Glycol gallate 300 μM): 39.6 s
Coagulation time Plasma (LA) MA 030 (endogenous coagulation [3]; Ethylene Glycol gallate 300 μM): 44.2 s
Coagulation time Plasma def f VIIIc (endogenous coagulation [3]; Ethylene Glycol gallate 300 μM): 37.5 s
Coagulation time Plasmas Heparins Batch 1635 (endogenous coagulation [3]; Ethylene Glycol gallate 300 μM): 47.7 s
Coagulation time Plasmas Heparins Batch 1726 (endogenous coagulation [3]; Ethylene Glycol gallate 300 μM): 73.7 s
Coagulation time Control batch n° 80901 Normal (endogenous coagulation [3]; Ethylene Glycol gallate 400 μM): 32.9 s
Coagulation time Control batch n° 80901 Path (endogenous coagulation [3]; Ethylene Glycol gallate 400 μM): 39.6 s
Coagulation time Plasma (LA) MA 030 (endogenous coagulation [3]; Ethylene Glycol gallate 400 μM): 43.4 s
Coagulation time Plasma def f VIIIc (endogenous coagulation [3]; Ethylene Glycol gallate 400 μM): 37.2 s
Coagulation time Plasmas Heparins Batch 1635 (endogenous coagulation [3]; Ethylene Glycol gallate 400 μM): 47.0 s
Coagulation time Plasmas Heparins Batch 1726 (endogenous coagulation [3]; Ethylene Glycol gallate 400 μM): 75.1 s
Coagulation time Control batch n° 80901 Normal (endogenous coagulation [3]; Ethylene Glycol gallate 500 μM): 32.6 s
Coagulation time Control batch n° 80901 Path (endogenous coagulation [3]; Ethylene Glycol gallate 500 μM): 48.5 s
Coagulation time Plasma (LA) MA 030 (endogenous coagulation [3]; Ethylene Glycol gallate 500 μM): 43.0 s
Coagulation time Plasma def f VIIIc (endogenous coagulation [3]; Ethylene Glycol gallate 500 μM): 37.5 s
Coagulation time Plasmas Heparins Batch 1635 (endogenous coagulation [3]; Ethylene Glycol gallate 500 μM): 47.3 s
Coagulation time Plasmas Heparins Batch 1726 (endogenous coagulation [3]; Ethylene Glycol gallate 500 μM): 76.1 s
Coagulation time Control batch n° 80901 Normal (endogenous coagulation [3]; [5]): 33.4 s
Coagulation time Control batch n° 80901 Path (endogenous coagulation [3]; [5]): 51.5 s
Coagulation time Plasma (LA) MA 030 (endogenous coagulation [3]; [5]): 42.5 s
Coagulation time Plasma def f VIIIc (endogenous coagulation [3]; [5]): 37.1 s
Coagulation time Plasmas Heparins Batch 1635 (endogenous coagulation [3]; [5]): 47.9 s
Coagulation time Plasmas Heparins Batch 1726 (endogenous coagulation [3]; [5]): 76.3 s
Activity in an APTT coagulation test (endogenous coagulation [4]): became active

ethylene diamine gallate [H2N—(CH2)n—NH2 n=2]
Coagulation time, f VII def 25% (endogenous coagulation [1]): 113.0 s
Coagulation time, CCN (endogenous coagulation [2]): 138.1 s
Coagulation time, CCP (endogenous coagulation [2]): 177.9 s
Coagulation time, Heparins Batch 0811 (endogenous coagulation [2]): >300.0 s
Coagulation time, Heparins Batch 1706 (endogenous coagulation [2]): 228.4 s
Coagulation time, Lupus Batch 021 (endogenous coagulation [2]): 167.6 s
Coagulation time, Pool N LIK 800 (endogenous coagulation [2]): 111.5 s
